The values below come from patent US9186353B2, “Treatment of osteoarthritis pain” (AbbVie Inc., priority 2009, dated 2015).

The subject of data set [1] is adult osteoarthritic rats. Briefly: MIA-OA osteoarthritis pain model, hind limb grip force. The data set is classed as in vivo, Male Sprague Dawley rats. Conditions: Rattus norvegicus, 480 h, read-out: % Effect; for inhibition in vivo at 1 mg/kg: 1 mg/kg i.p.; for inhibition in vivo at 3 mg/kg: 3 mg/kg i.p. Here is the method:
This model, the MIA-OA model is well known to those skilled in the art. A general review of various models of pain is found in Joshi and Honore, Expert Opinion in Drug Discovery (2004) 1, pp. 323-334, and in the book ‘Drug Discovery and Evaluation, 2nd edition’ (H. Gerhard Vogel, editor; Springer-Verlag, New York, 2002; pp. 702-706).
Pain behavior was assessed by measurement of hind limb grip force (GF) in adult osteoarthritic rats. Male Sprague Dawley rats, 325-350 g, were injected in the unilateral knee join with a single intra-articular injection of sodium monoiodoacetate (MIA). All rats were tested at 20 days following MIA injection. A behavioral measure of activity-induced pain was carried out. Measurements of the peak hind limb grip force were conducted by recording the maximum compressive force (CFmax), in grams of force, exerted on a hind limb strain gauge setup, in a commercially available grip force measurement system (Columbus Instruments, Columbus, Ohio).
During testing, each rat was gently restrained by grasping it around its rib cage and then allowed to grasp the wire mesh frame attached to the strain gauge. The experimenter then moved the animal in a rostral-to-caudal direction until the grip was broken. Each rat was sequentially tested twice at approximately 2-3 min interval to obtain a raw mean grip force (CFmax). This raw mean grip force data was in turn converted to a maximum hindlimb cumulative compressive force (CFmax), as the grams of force/kg of body weight, for each animal.
For evaluating the compound effects, the hind limb grip force was conducted 20 days following the intra-articular injection of MIA. A group of age-matched naïve (not injected with MIA) animals was added as a comparator to the drug-dosed groups. The vehicle control response for each group of MIA-treated animals was defined as the 0% response (0% effect), whereas the naïve control group was defined as the normal response and as 100% effect. The % effects for each dose group was expressed as % return of response to normalcy, compared to the naïve group. That is, the % effect=(Treatment CFmax−Vehicle CFmax)/Vehicle CFmax]×100). Higher % effect numbers indicate increased relief from the pain in the model, with 100% indicating a return to the level of response seen in normal (non-osteoarthritic) animals. All experiments evaluating drug effects in this model were conducted in a randomized blinded fashion.
Male Sprague Dawley rats (250-300 g body weight) obtained from Charles River Laboratories (Wilmington, Mass.) were used for all experiments, unless indicated otherwise. The animals were housed in Association for Assessment and Accreditation of Laboratory Animal Care (AAALAC) approved facilities at Abbott Laboratories in a temperature-regulated environment under a controlled 12-h light-dark cycle, with lights on at 6:00 a.m. Food and water were available ad libitum at all times except during testing. All testing was done following procedures outlined in protocols approved by Abbott Laboratories' Institutional Animal Care and Use Committee.

The mark [2] stands for this setting: ip, hind limb grip force (CFmax) 20 days after intra-articular MIA, % return to normalcy vs naive, mean ± SEM.

`O=c1cccnn1-c1ccc2nc([C@H]3C[C@@H](N4CCCCC4)C3)sc2c1` [Example 1, Cis-2-[2-(3-piperidin-1-ylcyclobutyl)-1,3-benzothiazol-6-yl]pyridazin-3(2H)-one] returned a melting point of 127 to 128 °C. In addition, in data set [1] (setting [2]), the inhibition in vivo at 1 mg/kg came to 51 ± 6% and the inhibition in vivo at 3 mg/kg amounted to 79 ± 6%.

Turning to `C[C@@H]1CCCN1CCc1cc2cc(-c3ccc(C#N)cc3)ccc2o1` [Example 4, (4-(2-(2-[2(R)-Methyl-1-pyrrolidinyl]ethyl)-1-benzofuran-5-yl)benzonitrile)], in data set [1] (setting [2]), the inhibition in vivo at 1 mg/kg amounted to 40 ± 4% and the inhibition in vivo at 3 mg/kg stood at 56 ± 6%.

In the case of `CNC(=O)c1ccc(Oc2ccc3c(c2)CCN(C2CCC2)CC3)nc1` [Example 5, (6-(3-Cyclobutyl-2,3,4,5-tetrahydro-1H-benzo[d]azepin-7-yloxy)-N-methyl-nicotinamide), reference compound], in data set [1] (setting [2]), the inhibition in vivo at 1 mg/kg stood at 54 ± 5% and the inhibition in vivo at 3 mg/kg is 74 ± 4%.

Regarding `O=C1[C@@H](O)CCN1c1ccc2nc(C3CC(N4CCCCC4)C3)sc2c1` (stereo partly drawn) [Example 3, (S)-3-Hydroxy-1-[2-(3-piperidin-1-yl-cyclobutyl)-benzothiazol-6-yl]-pyrrolidin-2-one], in data set [1] (setting [2]), the inhibition in vivo at 1 mg/kg was determined as 26 ± 2% and the inhibition in vivo at 3 mg/kg was 53 ± 5%.

As for `O=c1cccnn1-c1ccc2nc([C@H]3C[C@H](N4CCCCC4)C3)sc2c1` [Example 2, Trans-2-[2-(3-piperidin-1-ylcyclobutyl)-1,3-benzothiazol-6-yl]pyridazin-3(2H)-one], the inhibition in vivo at 3 mg/kg in data set [1] (setting [2]) is 43 ± 13%.

Consider `C[C@H]1CCCN1C[C@H]1C[C@@H]1c1ccc(-n2ncccc2=O)cc1` [Example 8, 2-[4-((1S,2S)-2-{[(2S)-2-methylpyrrolidin-1-yl]methyl}cyclopropyl)phenyl]pyridazin-3(2H)-one], for which, in data set [1] (setting [2]), the inhibition in vivo at 1 mg/kg amounted to 47 ± 6% and the inhibition in vivo at 3 mg/kg is 68 ± 4%. In addition, the inhibition in vivo at 10 mg/kg in data set [1] (ip, 10 mg/kg i.p., hind limb grip force (CFmax) 20 days after intra-articular MIA, % return to normalcy vs naive, mean ± SEM) turned out to be 82 ± 5%.

As for `CC(C)N1CCCN(C(=O)C2CCN(c3ccc(C(F)(F)F)nc3)CC2)CC1` [Example 7, (4-isopropyl-1,4-diazepan-1-yl)(1-(6-(trifluoromethyl)pyridin-3-yl)piperidin-4-yl)methanone, reference compound], in data set [1] (setting [2]), the inhibition in vivo at 1 mg/kg was 51 ± 8% and the inhibition in vivo at 3 mg/kg came out at 66 ± 6%.

In the case of `Cc1ccc(-c2cc(C(F)(F)F)nn2-c2ccc(S(N)(=O)=O)cc2)cc1` [celecoxib, reference compound], the inhibition in vivo at 30 mg/kg in data set [1] (30 mg/kg, positive control, hind limb grip force 20 days after MIA) stood at 89%.

Turning to `CNC(=O)c1cnc(Oc2ccc3c(c2)CCN(C2CCC2)CC3)cn1` [Example 6, (5-(3-cyclobutyl-2,3,4,5-tetrahydro-1H-benzo[d]azepin-7-yloxy)-N-methylpyrazine-2-carboxamide), reference compound], in data set [1] (setting [2]), the inhibition in vivo at 1 mg/kg was 65 ± 9% and the inhibition in vivo at 3 mg/kg came out at 90 ± 17%.
